Entries after “also recorded” stand apart in the source; their conditions may differ. Each block holds one molecule with its values, some of them ahead of it.
Assays:
[1] = Recovery of Zn-Pc from tumour and normal tissues of tumour-bearing mice; format: in vivo, BALB/c mice
From the text: Br. J. Cancer (1987), 56, 597~~~~~~ ~~-60?TeMcilnPssLd,18 Pharmacokinetic studies with zinc(II)-phthalocyanine in tumour-bearing mice E. Reddi, G. Lo Castro, R. Biolo & G. Jori Department of Biology via Loredan 10, University of Padova, 1-35131 Padova, Italy. Summary Zn(II)-phthalocyanine (Zn-Pc) incorporated into unilamellar liposomes of dipalmitoyl- phosphatidylcholine has been injected intraperitoneally (0.5mgkg-1) to BALB/c mice bearing a transplanted MS-2 fibrosarcoma. […] Several normal tissues take up the drug within 3 hours after administration but release it almost completely after 24-48 hours. […] The results are discussed in terms of a possible use of Zn-Pc as a photosensitizer in the photodynamic therapy of tumours. Haematoporphyrin and haematoporphyrin derivative (HpD) are presently used as sensitizers for the specific destruction of tumours by photodynamic therapy (PDT) (Moan, 1986; Spikes & Jori, 1987). Although the technique is being applied for the treatment of a variety of neoplasias at both the experimental and clinical level (Dougherty, 1984), PDT is facing some problems and/or limitations. Thus, HpD as it is prepared from Hp (Lipson et al., 1961) is a complex mixture of porphyrins, whose composition is often not reproduced in different preparations and may change as a function of various experimental parameters (Bonnett et al., 1981; Dougherty, 1983). […] Moreover, PDT is usually performed by irradiation with 620-630 nm light; unfortunately, the molar absorptivity of Hp or HpD in this wavelength range is very low (< 103 M- 1 cm- 1). […] The ability of phthalocyanines and some of their metal derivatives to act as efficient photosensitizers of simple biological substrates (Spikes & Bommer, 1986) and cultured cells (Ben-Hur & Rosenthal, 1985; Chan et al., 1986) has been documented. Finally, Rousseau et al. (1985) have reported that tetra- sulphophthalocyanines (TSPc) can accumulate in a mammary adenocarcinoma in rats. While tetrasulphophthalocyanines are suitable for in vivo studies because of their high water-solubility, serious problems may arise owing to the low degree of purity. Actually, the presently adopted procedures for sulfonation of phthalocyanines lead to mixtures of mono-, di-, tri- and tetra-sulphonated compounds (Linstead & Weiss, 1950; Moser & Thomas, 1983). In general, underivatized phthalocyanines can be obtained with a very high purity and display a good efficiency in the generation of activated oxygen species (Maillard et al., 1980; Wu et al., 1985). […] In this paper, we describe the pharmacokinetic behaviour of liposome-bound Zn- phthalocyanine injected into. BALB/c mice bearing a transplanted fibrosarcoma. Materials and methods Chemicals Zn2 +-phthalocyanine (Zn-Pc) was supplied by Ciba-Geigy (Switzerland) and used without further purification. […] Dipalmitoyl- phosphatidylcholine (DPPC), over 98% pure, was a product of Sigma Chemical Co.; sodium dodecylsulphate (SDS) and Sephacryl S-300 were purchased from Merck and Pharmacia, respectively. […] Pharmacokinetic studies The Zn-Pc was injected- i.p. into tumour-bearing mice after incorporation of the dye into small unilamellar liposomes of DPPC following the procedure described by Valduga et al. (1987): The Zn-Pc/DPPC ratio was 1:36 on a molar basis, as assessed from the weighed amount of phospholipid and absorbance measurements at 680 nm for Zn-Pc (E= 1.68 x 105 M-1 cm- at 673 nm). […]

[2] = Serum concentration time course after i.p. injection of liposomal Zn-Pc in tumour-bearing mice; format: in vivo, BALB/c mice; conditions: 0.5 mg kg-1 i.p. in DPPC liposomes, mice bearing MS-2 fibrosarcoma
From the text: Br. J. Cancer (1987), 56, 597~~~~~~ ~~-60?TeMcilnPssLd,18 Pharmacokinetic studies with zinc(II)-phthalocyanine in tumour-bearing mice E. Reddi, G. Lo Castro, R. Biolo & G. Jori Department of Biology via Loredan 10, University of Padova, 1-35131 Padova, Italy. Summary Zn(II)-phthalocyanine (Zn-Pc) incorporated into unilamellar liposomes of dipalmitoyl- phosphatidylcholine has been injected intraperitoneally (0.5mgkg-1) to BALB/c mice bearing a transplanted MS-2 fibrosarcoma. […] Several normal tissues take up the drug within 3 hours after administration but release it almost completely after 24-48 hours. […] The results are discussed in terms of a possible use of Zn-Pc as a photosensitizer in the photodynamic therapy of tumours. Haematoporphyrin and haematoporphyrin derivative (HpD) are presently used as sensitizers for the specific destruction of tumours by photodynamic therapy (PDT) (Moan, 1986; Spikes & Jori, 1987). Although the technique is being applied for the treatment of a variety of neoplasias at both the experimental and clinical level (Dougherty, 1984), PDT is facing some problems and/or limitations. Thus, HpD as it is prepared from Hp (Lipson et al., 1961) is a complex mixture of porphyrins, whose composition is often not reproduced in different preparations and may change as a function of various experimental parameters (Bonnett et al., 1981; Dougherty, 1983). […] Moreover, PDT is usually performed by irradiation with 620-630 nm light; unfortunately, the molar absorptivity of Hp or HpD in this wavelength range is very low (< 103 M- 1 cm- 1). […] Pharmacokinetic studies The Zn-Pc was injected- i.p. into tumour-bearing mice after incorporation of the dye into small unilamellar liposomes of DPPC following the procedure described by Valduga et al. (1987): The Zn-Pc/DPPC ratio was 1:36 on a molar basis, as assessed from the weighed amount of phospholipid and absorbance measurements at 680 nm for Zn-Pc (E= 1.68 x 105 M-1 cm- at 673 nm). […]

[3] = Elimination pathway: analysis of faeces and urine of rats in metabolic cages; format: in vivo, Wistar albino rats; conditions: rapid clearance phase
serum lipoproteins = assay: Sephacryl S-300 chromatography of mouse serum after Zn-Pc administration; format: in vivo, BALB/c mice; conditions: sera taken between 1 h and 1 week after i.p. administration; second protein peak on Sephacryl S-300
From the text: Br. J. Cancer (1987), 56, 597~~~~~~ ~~-60?TeMcilnPssLd,18 Pharmacokinetic studies with zinc(II)-phthalocyanine in tumour-bearing mice E. Reddi, G. Lo Castro, R. Biolo & G. Jori Department of Biology via Loredan 10, University of Padova, 1-35131 Padova, Italy. Summary Zn(II)-phthalocyanine (Zn-Pc) incorporated into unilamellar liposomes of dipalmitoyl- phosphatidylcholine has been injected intraperitoneally (0.5mgkg-1) to BALB/c mice bearing a transplanted MS-2 fibrosarcoma. […] Several normal tissues take up the drug within 3 hours after administration but release it almost completely after 24-48 hours. […] The results are discussed in terms of a possible use of Zn-Pc as a photosensitizer in the photodynamic therapy of tumours. Haematoporphyrin and haematoporphyrin derivative (HpD) are presently used as sensitizers for the specific destruction of tumours by photodynamic therapy (PDT) (Moan, 1986; Spikes & Jori, 1987). […] Pharmacokinetic studies The Zn-Pc was injected- i.p. into tumour-bearing mice after incorporation of the dye into small unilamellar liposomes of DPPC following the procedure described by Valduga et al. (1987): The Zn-Pc/DPPC ratio was 1:36 on a molar basis, as assessed from the weighed amount of phospholipid and absorbance measurements at 680 nm for Zn-Pc (E= 1.68 x 105 M-1 cm- at 673 nm). […]

HDL = assay: In vitro incubation of human serum with Zn-Pc incorporated into DPPC liposomes; format: in vitro ADME; conditions: Reddi et al., unpublished results
[4] = design: method as in Tomio et al. (1982); conditions: Wistar rats; ref Tomio et al. (1982); cited from earlier work
[5] = design: method as in Tralau et al., 1987; conditions: i.v., ref Tralau et al., 1987, cited from earlier work

time of almost complete release from normal tissues ([1]; 0.5 mg kg-1 i.p.): 24 to 48 h
time of maximum tumour concentration ([1]; MS-2 fibrosarcoma, 0.5 mg kg-1 i.p. in DPPC liposomes): 18 to 24 h
ratio between Zn-Pc levels in tumour and muscle ([1]; at 18-24 h (24 h) after 0.5 mg kg-1 i.p., muscle = surrounding normal tissue): approximately 7.5
time of uptake by several normal tissues after administration ([1]; liver, kidneys, spleen, lungs, muscle, 0.5 mg kg-1 i.p.): ≤ 3 h
skin concentration of Zn-Pc ([1]; mouse skin, between 1 h and 168 h after administration, 0.5 mg kg-1 i.p.): ≤ 0.1 pug g- I tissue
serum half-life (fast phase) [2]: approximately 9 hours
time of maximum serum concentration after administration [2]: 3 h
fraction of Zn-Pc eliminated from serum in the fast phase ([2]; biphasic clearance): approximately 60%
fraction of drug bound by HDL (HDL): at least 70%
Molecule: [Zn+2].c1ccc2c(c1)-c1nc-2nc2[n-]c(nc3nc([n-]c4nc(n1)-c1ccccc1-4)-c1ccccc1-3)c1ccccc21 [Zn-Pc, Zn(II)-phthalocyanine]
elimination pathway from serum [3]: almost exclusively via the bile-gut pathway
serum protein class transporting the drug (serum lipoproteins): specifically transported by serum lipoproteins; also recorded: specifically associated with the second protein peak

Molecule: CC1=C(CCC(=O)O)c2cc3[nH]c(cc4nc(cc5[nH]c(cc1n2)c(C)c5C(C)O)C(C)=C4C(C)O)c(C)c3CCC(=O)O (centres unmarked) [haematoporphyrin]
fraction of totally eliminated drug recovered in the faeces [4]: at least 98%

Molecule: tetrasulphophthalocyanines [TSPc]
time of accumulation in tumour ([5]; fibrosarcoma implanted s.c. in the flank): 1 to 3 h
time to complete disappearance from serum [5]: ≤ 3 h

From paper PMC2001878, “Pharmacokinetic studies with zinc(II)-phthalocyanine in tumour-bearing mice” (British Journal of Cancer, 1987)
